Data as given in US9469615B2, “Quinoxalines and AZA-quinoxalines as CRTH2 receptor modulators” (Merck Sharp & Dohme Corp., priority 2010, dated 2016).

biological target: T1, hCRTH2 (Homo sapiens, UniProt Q9Y5Y4); assay: Radioligand binding assay ([3H]PGD2 competition, HEK-hCRTH2 membranes); settings: [3H]PGD2 binding, rated A-E (Table A)
T1 construct: expressed in transfected cells; host or cells: HEK (human embryonic kidney) cells expressing hCRTH2; membrane preparation
T1 sequence (Q9Y5Y4 1-395): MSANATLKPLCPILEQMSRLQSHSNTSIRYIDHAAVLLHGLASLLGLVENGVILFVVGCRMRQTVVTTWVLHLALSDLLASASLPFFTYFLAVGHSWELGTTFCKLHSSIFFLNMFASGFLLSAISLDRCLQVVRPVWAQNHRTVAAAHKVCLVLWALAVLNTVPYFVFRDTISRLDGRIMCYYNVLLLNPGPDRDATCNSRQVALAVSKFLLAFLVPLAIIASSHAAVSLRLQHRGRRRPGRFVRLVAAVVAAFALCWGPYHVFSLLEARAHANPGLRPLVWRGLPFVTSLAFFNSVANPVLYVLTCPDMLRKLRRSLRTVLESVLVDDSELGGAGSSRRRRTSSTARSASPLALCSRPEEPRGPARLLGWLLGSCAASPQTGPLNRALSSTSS
In short: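 HEK-hCRTH2 membranes, 8-20 μg; [3H]PGD2 3.0 nM; 50 mM Tris-HCl pH 7.4/1 mM EDTA/2 mM MnCl2; DMSO 1%; 60 min RT; NSB 10 μM PGD2; filtration, scintillation counting.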

O=C(O)CCCCc1nc2cc(C(=O)N3CCCc4ccccc43)ccc2nc1-c1ccccc1 [15Bi, 5-[7-(3,4-dihydro-quinolin-1(2H)-ylcarbonyl)-3-phenylquinoxalin-2-yl]pentanoic acid] and O=C(O)CCCCc1nc2cc(C(=O)N3CCCC(c4ccccc4)C3)ccc2nc1-c1ccccc1 (stereo not shown) [15Y, 5-{3-phenyl-7-[(3-phenylpiperidin-1-yl)carbonyl]quinoxalin-2-yl}pentanoic acid] fall in the same range of Ki: 0.1 to 2 nM for the first, 0.1 to 2 nM for the second.

CN(C(=O)c1ccc2nc(-c3ccccc3)c(CCCCC(=O)O)nc2c1)C1CCOC1 (stereo not shown) [15Bo, 5-{7-[methyl (tetrahydrofuran-3-yl)carbamoyl]-3-phenylquinoxalin-2-yl} pentanoic acid] and CCN1CCN(C(=O)c2ccc3nc(-c4ccccc4)c(CCCCC(=O)O)nc3c2)CC1 [15L, 5-{7-[(4-ethylpiperazin-1-yl)carbonyl]-3-phenylquinoxalin-2-yl}pentanoic acid] fall in the same range of Ki: 20.1 to 200 nM for the first, 20.1 to 200 nM for the second.

O=C(O)CCCCc1nc2cc(C(=O)NCc3ccc(C(F)(F)F)cc3)ccc2nc1-c1ccccc1 [15C, 5-(3-phenyl-7-{[4-(trifluoromethyl)benzyl]carbamoyl}quinoxalin-2-yl)pentanoic acid] and O=C(O)CCCCc1nc2cc(C(=O)NCc3ccc(Cl)cc3)ccc2nc1-c1ccccc1 [15T, 5-{7-[(4-chlorobenzyl)-carbamoyl]-3-phenyl-quinoxalin-2-yl} pentanoic acid] fall in the same range of Ki: 0.1 to 2 nM for the first, 0.1 to 2 nM for the second.

C[C@@H](NC(=O)c1ccc2nc(-c3ccccc3)c(CCCCC(=O)O)nc2c1)c1ccc(F)cc1 [15D, 5-(7-{[(1R)-1-(4-fluorophenyl)ethyl]carbamoyl}-3-phenyl-quinoxalin-2-yl)pentanoic acid] and C[C@H](NC(=O)c1ccc2nc(-c3ccccc3)c(CCCCC(=O)O)nc2c1)c1ccc(F)cc1 [15E, 5-(7-{[(1S)-1-(4-fluorophenyl)ethyl]carbamoyl}-3-phenylquinoxalin-2-yl)pentanoic acid] fall in the same range of Ki: 0.1 to 2 nM for the first, 0.1 to 2 nM for the second.

O=C(O)CCCCc1nc2cc(C(=O)N[C@@H](c3ccccc3)C(F)(F)F)ccc2nc1-c1ccccc1 [15F, 5-(3-phenyl-7-{[(1S)-2,2,2-trifluoro-1-phenylethyl]carbamoyl}quinoxalin-2-yl) pentanoic acid] and O=C(O)CCCCc1nc2cc(C(=O)N[C@H](c3ccccc3)C(F)(F)F)ccc2nc1-c1ccccc1 [15G, 5-(3-phenyl-7-{[(1R)-2,2,2-trifluoro-1-phenylethyl]carbamoyl}quinoxalin-2-yl) pentanoic acid] fall in the same range of Ki: 2.1 to 20 nM for the first, 2.1 to 20 nM for the second.

First: O=C(O)CCCCc1nc2cc(C(=O)N3CCC4(CC3)CNC4)ccc2nc1-c1ccccc1 [15H, 5-[7-(2,7-diazaspiro-[3.5]non-7-ylcarbonyl)-3-phenylquinoxalin-2-yl]pentanoic acid]
Second: O=C(O)CCCCc1nc2cc(C(=O)N3CC4(CCNCC4)C3)ccc2nc1-c1ccccc1 [15i, 5-[7-(2,7-diazaspiro-[3.5]non-2-ylcarbonyl)-3-phenylquinoxalin-2-yl]pentanoic acid]
The Ki of the first is lower: 20.1 to 200 nM for the first, 201 to 700 nM for the second. The first binds more tightly here.

O=C(O)CCCCc1nc2cc(C(=O)N3CCNC(c4ccccc4)C3)ccc2nc1-c1ccccc1 (stereo not shown) [15J, 5-{3-phenyl-7-[(3-phenylpiperazin-1-yl)carbonyl]quinoxalin-2-yl}pentanoic acid] and O=C(O)CCCCc1nc2cc(C(=O)N3CCNC(Cc4ccccc4)C3)ccc2nc1-c1ccccc1 (stereo not shown) [15K, 5-{7-[(3-benzylpiperazin-1-yl)carbonyl]-3-phenyl-quinoxalin-2-yl}pentanoic acid] fall in the same range of Ki: 2.1 to 20 nM for the first, 2.1 to 20 nM for the second.

First: COCCN1CCN(C(=O)c2ccc3nc(-c4ccccc4)c(CCCCC(=O)O)nc3c2)CC1 [15M, 5-(7-{[4-(2-methoxy-ethyl)piperazin-1-yl]-carbonyl}-3-phenyl-quinoxalin-2-yl) pentanoic acid]
Second: O=C(O)CCCCc1nc2cc(C(=O)N3CCN(S(=O)(=O)c4ccccc4)CC3)ccc2nc1-c1ccccc1 [15o, 5-(3-phenyl-7-{[4-(phenylsulfonyl)piperazin-1-yl]carbonyl}quinoxalin-2-yl)pentanoic acid]
The Ki of the first is higher: 20.1 to 200 nM for the first, 2.1 to 20 nM for the second.

First: COc1ccc(C2CCN(C(=O)c3ccc4nc(-c5ccccc5)c(CCCCC(=O)O)nc4c3)C2)cc1 (stereo not shown) [15N, 5-(7-{[3-(4-methoxy-phenyl)pyrrolidin-1-yl]-carbonyl}-3-phenyl-quinoxalin-2-yl) pentanoic acid]
Second: O=C(O)CCCCc1nc2cc(C(=O)N3CCC(c4ccc(F)cc4)C3)ccc2nc1-c1ccccc1 (stereo not shown) [15S, 5-(7-{[3-(4-fluorophenyl)-pyrrolidin-1-yl]carbonyl}-3-phenylquinoxalin-2-yl)-pentanoic acid]
The Ki of the first is higher: 2.1 to 20 nM for the first, 0.1 to 2 nM for the second. The second binds more tightly here.

O=C(O)CCCCc1nc2cc(C(=O)N3CCC(c4cccc(Cl)c4)C3)ccc2nc1-c1ccccc1 (stereo not shown) [15P, 5-(7-{[3-(3-chloro-phenyl)pyrrolidin-1-yl]-carbonyl}-3-phenyl-quinoxalin-2-yl) pentanoic acid] and O=C(O)CCCCc1nc2cc(C(=O)N3CC(c4ccccc4)C3)ccc2nc1-c1ccc(Cl)cc1 [16AF, 3-(4-chlorophenyl)-7-[(3-phenyl-1-azetidinyl)carbonyl]-2-quinoxalinepentanoic acid] fall in the same range of Ki: 0.1 to 2 nM for the first, 0.1 to 2 nM for the second.

Compared with O=C(O)CCCCc1nc2cc(C(=O)NC(c3ccc(F)cc3)C(F)(F)F)ccc2nc1-c1ccccc1 (stereo not shown) [15Q, 5-(3-phenyl-7-{[2,2,2-trifluoro-1-(4-fluoro-phenyl)ethyl]carbamoyl}-quinoxalin-2-yl)pentanoic acid], O=C(O)CCCCc1nc2cc(C(=O)N[C@H](c3ccccc3)C(F)(F)F)ccc2nc1-c1ccc(Cl)cc1 [16AH, 3-(4-chlorophenyl)-7-[[(2,2,2-trifluoro-1(R)-phenylethyl)amino]carbonyl]-2-quinoxalinepentanoic acid] is higher in Ki: 0.1 to 2 nM for the first, 2.1 to 20 nM for the second.

O=C(O)CCCCc1nc2cc(C(=O)N3CCC(Cc4ccccc4)C3)ccc2nc1-c1ccccc1 (stereo not shown) [15R, 5-{7-[(3-benzylpyrrolidin-1-yl)carbonyl]-3-phenyl-quinoxalin-2-yl}pentanoic acid] and O=C(O)CCCCc1nc2cc(C(=O)NCc3ccccc3)ccc2nc1-c1ccccc1 [15Z, 5-[7-(benzylcarbamoyl)-3-phenylquinoxalin-2-yl]pentanoic acid] fall in the same range of Ki: 0.1 to 2 nM for the first, 0.1 to 2 nM for the second.

First: O=C(O)CCCCc1nc2cc(C(=O)NCc3cccc(Cl)c3)ccc2nc1-c1ccccc1 [15U, 5-{7-[(3-chlorobenzyl)carbamoyl]-3-phenylquinoxalin-2-yl}pentanoic acid]
Second: O=C(O)CCCCc1nc2cc(C(=O)NCc3ccccc3Cl)ccc2nc1-c1ccccc1 [15V, 5-{7-[(2-chlorobenzyl)carbamoyl]-3-phenylquinoxalin-2-yl}pentanoic acid]
The Ki of the first is higher: 2.1 to 20 nM for the first, 0.1 to 2 nM for the second.

CC(C)(NC(=O)c1ccc2nc(-c3ccccc3)c(CCCCC(=O)O)nc2c1)c1ccccc1 [15X, 5-{7-[(1-methyl-1-phenylethyl)carbamoyl]-3-phenylquinoxalin-2-yl}pentanoic acid] and C[C@@H](NC(=O)c1ccc2nc(-c3ccc(Cl)cc3)c(CCCCC(=O)O)nc2c1)c1ccccc1 [16AL, 3-(4-chlorophenyl)-7-[[(1(R)-phenylethyl)amino]carbonyl]-2-quinoxalinepentanoic acid] fall in the same range of Ki: 0.1 to 2 nM for the first, 0.1 to 2 nM for the second.

O=C(O)CCCCc1nc2cc(C(=O)NCc3cccc(C(F)(F)F)c3)ccc2nc1-c1ccc(Cl)cc1 [16AB, 3-(4-chlorophenyl)-7-[[[[3-(trifluoromethyl)phenyl]methyl]amino]carbonyl]-2-quinoxalinepentanoic acid] and O=C(O)CCCCc1nc2cc(C(=O)NCc3cccc(OC(F)(F)F)c3)ccc2nc1-c1ccc(Cl)cc1 [16AC, 3-(4-chlorophenyl)-7-[[[[3-(trifluoromethoxy)phenyl]methyl]amino]carbonyl]-2-quinoxalinepentanoic acid] fall in the same range of Ki: 0.1 to 2 nM for the first, 0.1 to 2 nM for the second.

C[C@@H](NC(=O)c1ccc2nc(-c3ccc(Cl)cc3)c(CCCCC(=O)O)nc2c1)c1ccc(Cl)cc1 [16AD, 3-(4-chlorophenyl)-7-[[[(R)-(4-chlorophenyl)ethyl]amino]carbonyl]-2-quinoxalinepentanoic acid] and C[C@H](NC(=O)c1ccc2nc(-c3ccc(Cl)cc3)c(CCCCC(=O)O)nc2c1)c1ccc(Cl)cc1 [16AE, 3-(4-chlorophenyl)-7-[[[1(S)-(4-chlorophenyl)ethyl]amino]carbonyl]-2-quinoxalinepentanoic acid] fall in the same range of Ki: 0.1 to 2 nM for the first, 0.1 to 2 nM for the second.

O=C(O)CCCCc1nc2cc(C(=O)N3CCN(c4ccccc4)CC3)ccc2nc1-c1ccc(Cl)cc1 [16AG, 3-(4-chlorophenyl)-7-[(4-phenyl-1-piperazinyl)carbonyl]-2-quinoxalinepentanoic acid] and N#CC1(c2ccccc2)CCN(C(=O)c2ccc3nc(-c4ccc(Cl)cc4)c(CCCCC(=O)O)nc3c2)CC1 [16AK, 3-(4-chlorophenyl)-7-[(4-cyano-4-phenyl-1-piperidinyl)carbonyl]-2-quinoxalinepentanoic acid] fall in the same range of Ki: 0.1 to 2 nM for the first, 0.1 to 2 nM for the second.

O=C(O)CCCCc1nc2cc(C(=O)N3CC=C(c4ccccc4)CC3)ccc2nc1-c1ccc(Cl)cc1 [16AJ, 3-(4-chlorophenyl)-7-[(3,6-dihydro-4-phenyl-1(2H)-pyridinyl)carbonyl]-2-quinoxalinepentanoic acid] and C[C@H](NC(=O)c1ccc2nc(-c3ccc(Cl)cc3)c(CCCCC(=O)O)nc2c1)c1ccccc1 [16AM, 3-(4-chlorophenyl)-7-[[(1-(S)-phenylethyl)amino]carbonyl]-2-quinoxalinepentanoic acid] fall in the same range of Ki: 0.1 to 2 nM for the first, 0.1 to 2 nM for the second.

same assay, conditions: [3H]PGD2 binding, values in text

First: O=C(O)CCCCc1nc2cc(C(=O)N3CCC4(CC3)CNC4)ccc2nc1-c1ccccc1 [15H, 5-[7-(2,7-diazaspiro-[3.5]non-7-ylcarbonyl)-3-phenylquinoxalin-2-yl]pentanoic acid]
Second: O=C(O)CCCCc1nc2cc(C(=O)N3CC4(CCNCC4)C3)ccc2nc1-c1ccccc1 [15i, 5-[7-(2,7-diazaspiro-[3.5]non-2-ylcarbonyl)-3-phenylquinoxalin-2-yl]pentanoic acid]
The Ki of the first is 1.9-fold lower: 152 nM for the first, 283 nM for the second.

Compared with O=C(O)CCCCc1nc2cc(C(=O)N3CCN(S(=O)(=O)c4ccccc4)CC3)ccc2nc1-c1ccccc1 [15o, 5-(3-phenyl-7-{[4-(phenylsulfonyl)piperazin-1-yl]carbonyl}quinoxalin-2-yl)pentanoic acid], O=C(O)CCCCc1nc2cc(C(=O)N3CCN(c4ccccc4)CC3)ccc2nc1-c1ccc(Cl)cc1 [16AG, 3-(4-chlorophenyl)-7-[(4-phenyl-1-piperazinyl)carbonyl]-2-quinoxalinepentanoic acid] is 14-fold lower in Ki: 16.7 nM for the first, 1.2 nM for the second.
